Laboratory results from paper PMC5218480 (PLoS ONE, 2017).

Test system: MV-4-11 cells
Test: Gene expression microarray analysis (Affymetrix PrimeView) and GSEA
Type: cell-based, human
Design: RFU PODN (11730768_x_at) / Fold change /veh PODN (11730768_x_at) / RFU LINC00158 (11744669_a_at) / Fold change /veh LINC00158 (11744669_a_at) / RFU DUSP10 (11751237_a_at) / Fold change /veh DUSP10 (11751237_a_at) / RFU ID3 (11757404_x_at) / Fold change /veh ID3 (11757404_x_at) / RFU PLEKHG5 (11737974_s_at) / Fold change /veh PLEKHG5 (11737974_s_at) / RFU LRRC4B (11730491_at) / Fold change /veh LRRC4B (11730491_at) / RFU GIMAP4 (11747438_a_at) / Fold change /veh GIMAP4 (11747438_a_at) / RFU KRT8 (11758183_x_at) / Fold change /veh KRT8 (11758183_x_at) / RFU CNN1 (11734310_a_at) / Fold change /veh CNN1 (11734310_a_at) / RFU VPS37D (11726825_at) / Fold change /veh VPS37D (11726825_at) / RFU C10orf10 (11716522_x_at) / Fold change /veh C10orf10 (11716522_x_at) / RFU KIR2DL2 /// KIR2DL4 /// KIR2DL5A /// KIR2DL5B /// KIR2DS1 /// KIR2DS2 /// KIR2DS3 /// KIR2DS4 /// KIR3DL3 /// KIR3DL3 /// KIR3DS1 (11738374_at) / Fold change /veh KIR2DL2 /// KIR2DL4 /// KIR2DL5A /// KIR2DL5B /// KIR2DS1 /// KIR2DS2 /// KIR2DS3 /// KIR2DS4 /// KIR3DL3 /// KIR3DL3 /// KIR3DS1 (11738374_at) / RFU C1QL1 (11718748_at) / Fold change /veh C1QL1 (11718748_at) / RFU TMPRSS4 (11747572_a_at) / Fold change /veh TMPRSS4 (11747572_a_at) / RFU HAMP (11756126_x_at) / Fold change /veh HAMP (11756126_x_at) / RFU RNFT2 (11725882_a_at) / Fold change /veh RNFT2 (11725882_a_at) / RFU NR4A2 (11747474_a_at) / Fold change /veh NR4A2 (11747474_a_at) / RFU ABCC12 (11746883_a_at) / Fold change /veh ABCC12 (11746883_a_at) / RFU TMEM136 (11760407_x_at) / Fold change /veh TMEM136 (11760407_x_at) / RFU CLDN22 /// WWC2 (11732394_at) / Fold change /veh CLDN22 /// WWC2 (11732394_at) / RFU HLA-DPB1 (11760878_x_at) / Fold change /veh HLA-DPB1 (11760878_x_at) / RFU SPINT1 (11716480_a_at) / Fold change /veh SPINT1 (11716480_a_at) / RFU GAP43 (11754022_s_at) / Fold change /veh GAP43 (11754022_s_at) / RFU A4GNT (11735810_at) / Fold change /veh A4GNT (11735810_at) / RFU PRB3 (11715151_x_at) / Fold change /veh PRB3 (11715151_x_at) / RFU TUBB4B (11761932_at) / Fold change /veh TUBB4B (11761932_at) / RFU CAPN14 (11732068_a_at) / Fold change /veh CAPN14 (11732068_a_at) / RFU TMCC2 (11721928_a_at) / Fold change /veh TMCC2 (11721928_a_at) / RFU IRGQ (11745062_a_at) / Fold change /veh IRGQ (11745062_a_at) / RFU FAM174B (11720279_a_at) / Fold change /veh FAM174B (11720279_a_at) / RFU TMPRSS4 (11748680_a_at) / Fold change /veh TMPRSS4 (11748680_a_at) / RFU FAM212B (11763350_a_at) / Fold change /veh FAM212B (11763350_a_at) / RFU PLEKHG5 (11743358_a_at) / Fold change /veh PLEKHG5 (11743358_a_at) / RFU ZSCAN30 (11745921_a_at) / Fold change /veh ZSCAN30 (11745921_a_at) / RFU CMKLR1 (11741424_a_at) / Fold change /veh CMKLR1 (11741424_a_at) / RFU LOC101060620 /// MAPK8IP1 (11723275_at) / Fold change /veh LOC101060620 /// MAPK8IP1 (11723275_at) / RFU SPTSSB (11747773_x_at) / Fold change /veh SPTSSB (11747773_x_at) / RFU PRSS12 (11739890_at) / Fold change /veh PRSS12 (11739890_at) / RFU BIN1 (11741810_x_at) / Fold change /veh BIN1 (11741810_x_at) / RFU WNT11 (11732464_a_at) / Fold change /veh WNT11 (11732464_a_at) / RFU C10orf10 (11716521_a_at) / Fold change /veh C10orf10 (11716521_a_at) / RFU C5orf56 (11738089_at) / Fold change /veh C5orf56 (11738089_at) / RFU CYB561 (11721691_x_at) / Fold change /veh CYB561 (11721691_x_at) / RFU ANKRD19P (11752326_a_at) / Fold change /veh ANKRD19P (11752326_a_at) / RFU OR2T12 /// OR2T33 /// OR2T8 (11738714_s_at) / Fold change /veh OR2T12 /// OR2T33 /// OR2T8 (11738714_s_at) / RFU VCAN (11748164_a_at) / Fold change /veh VCAN (11748164_a_at) / RFU JSRP1 (11732532_at) / Fold change /veh JSRP1 (11732532_at) / RFU KRTAP10-11 (11738290_x_at) / Fold change /veh KRTAP10-11 (11738290_x_at) / RFU MYO3A (11730013_a_at) / Fold change /veh MYO3A (11730013_a_at) / RFU EBF3 (11725865_a_at) / Fold change /veh EBF3 (11725865_a_at) / RFU CAMK2N1 (11719241_x_at) / Fold change /veh CAMK2N1 (11719241_x_at) / RFU C5orf56 (11738088_a_at) / Fold change /veh C5orf56 (11738088_a_at) / RFU OLFML3 (11715873_a_at) / Fold change /veh OLFML3 (11715873_a_at) / RFU LOC100653217 /// NTM (11731650_a_at) / Fold change /veh LOC100653217 /// NTM (11731650_a_at) / RFU MAPK11 (11762145_a_at) / Fold change /veh MAPK11 (11762145_a_at) / RFU FIZ1 (11724087_x_at) / Fold change /veh FIZ1 (11724087_x_at) / RFU OASL (11726364_x_at) / Fold change /veh OASL (11726364_x_at) / RFU SOX15 (11748057_x_at) / Fold change /veh SOX15 (11748057_x_at) / RFU CD79A (11719716_a_at) / Fold change /veh CD79A (11719716_a_at) / RFU HIST1H1D (11736915_at) / Fold change /veh HIST1H1D (11736915_at) / RFU CASKIN2 (11723855_a_at) / Fold change /veh CASKIN2 (11723855_a_at) / RFU LOC730098 (11760151_x_at) / Fold change /veh LOC730098 (11760151_x_at) / RFU OR4N2 (11742367_at) / Fold change /veh OR4N2 (11742367_at) / RFU PRRT2 (11749266_a_at) / Fold change /veh PRRT2 (11749266_a_at) / RFU SNX32 (11753110_a_at) / Fold change /veh SNX32 (11753110_a_at) / RFU CDHR5 (11726645_a_at) / Fold change /veh CDHR5 (11726645_a_at) / RFU RCAN1 (11760418_a_at) / Fold change /veh RCAN1 (11760418_a_at) / RFU FAM167A (11723789_a_at) / Fold change /veh FAM167A (11723789_a_at) / RFU FAM26E (11764081_at) / Fold change /veh FAM26E (11764081_at) / RFU ISYNA1 (11749810_s_at) / Fold change /veh ISYNA1 (11749810_s_at) / RFU ACY1 (11761880_at) / Fold change /veh ACY1 (11761880_at) / RFU 11764098_at / Fold change /veh 11764098_at / RFU SAMD14 (11745864_x_at) / Fold change /veh SAMD14 (11745864_x_at) / RFU NPB (11741838_a_at) / Fold change /veh NPB (11741838_a_at) / RFU TMPRSS6 (11731388_a_at) / Fold change /veh TMPRSS6 (11731388_a_at) / RFU KRTAP10-2 (11738614_at) / Fold change /veh KRTAP10-2 (11738614_at) / RFU ARHGAP8 /// PRR5-ARHGAP8 (11727945_x_at) / Fold change /veh ARHGAP8 /// PRR5-ARHGAP8 (11727945_x_at) / RFU KRTAP5-7 /// NADSYN1 (11734609_at) / Fold change /veh KRTAP5-7 /// NADSYN1 (11734609_at) / RFU RASL12 (11751679_a_at) / Fold change /veh RASL12 (11751679_a_at) / RFU CDKN2B (11736163_a_at) / Fold change /veh CDKN2B (11736163_a_at) / RFU PRF1 (11729649_at) / Fold change /veh PRF1 (11729649_at) / RFU, ZNF638 /// ZNF638-IT1 / Fold change vs veh, ZNF638 /// ZNF638-IT1 / RFU, PANK3 / Fold change vs veh, PANK3 / RFU, SH3YL1 / Fold change vs veh, SH3YL1 / RFU, ZEB2 / Fold change vs veh, ZEB2 / RFU, NRIP1 / Fold change vs veh, NRIP1 / RFU, PTTG1IP / Fold change vs veh, PTTG1IP / RFU, CAPN2 / Fold change vs veh, CAPN2 / RFU, MED14 / Fold change vs veh, MED14 / RFU, SNORA58 / Fold change vs veh, SNORA58 / RFU, C1orf63 / Fold change vs veh, C1orf63 / RFU, LRRFIP1 / Fold change vs veh, LRRFIP1 / RFU, NDUFAF7 / Fold change vs veh, NDUFAF7 / RFU, SLC12A2 / Fold change vs veh, SLC12A2 / RFU, IBTK / Fold change vs veh, IBTK / RFU, ESF1 / Fold change vs veh, ESF1 / Fold change vs veh, TMEM50B / RFU, TAOK1 / Fold change vs veh, TAOK1 / RFU, ACBD3 / Fold change vs veh, ACBD3 / RFU, TMA16 / Fold change vs veh, TMA16 / RFU, RWDD3 / Fold change vs veh, RWDD3 / RFU, BCAT1 / Fold change vs veh, BCAT1 / RFU, EDEM3 / Fold change vs veh, EDEM3 / RFU, TMEM33 / Fold change vs veh, TMEM33 / RFU, WDR75 / Fold change vs veh, WDR75 / RFU, AHCTF1 / Fold change vs veh, AHCTF1 / RFU, TFRC / Fold change vs veh, TFRC / RFU, ZDHHC17 / Fold change vs veh, ZDHHC17 / RFU, NOM1 / Fold change vs veh, NOM1 / RFU, ARL8B / Fold change vs veh, ARL8B / RFU, ZBTB11 / Fold change vs veh, ZBTB11 / RFU, TAMM41 / Fold change vs veh, TAMM41 / RFU, KIAA1704 /// LOC100996395 / Fold change vs veh, KIAA1704 /// LOC100996395 / RFU, ING1 / Fold change vs veh, ING1 / RFU, TRMT61B / Fold change vs veh, TRMT61B / RFU, FUBP3 / Fold change vs veh, FUBP3 / RFU, TP53 / Fold change vs veh, TP53 / RFU, TNKS2 / Fold change vs veh, TNKS2 / RFU, ZFP14 / Fold change vs veh, ZFP14 / RFU, ACTR2 / Fold change vs veh, ACTR2 / RFU, PPP3R1 / Fold change vs veh, PPP3R1 / RFU, PIK3R1 / Fold change vs veh, PIK3R1 / RFU, HNRNPA1 / Fold change vs veh, HNRNPA1 / RFU, RNF170 / Fold change vs veh, RNF170 / RFU, ZNF28 / Fold change vs veh, ZNF28 / RFU, RNGTT / Fold change vs veh, RNGTT / RFU, OGT / Fold change vs veh, OGT / RFU, BRD1 / Fold change vs veh, BRD1 / RFU, MARS / Fold change vs veh, MARS / RFU, ZNF655 / Fold change vs veh, ZNF655 / RFU, FAHD1 / Fold change vs veh, FAHD1 / RFU, BDP1 / Fold change vs veh, BDP1 / RFU, LRRCC1 / Fold change vs veh, LRRCC1 / RFU, ARID1A / Fold change vs veh, ARID1A / RFU, ZNF146 / Fold change vs veh, ZNF146 / RFU, ZNF330 / Fold change vs veh, ZNF330 / RFU, GPN3 / Fold change vs veh, GPN3 / RFU, C9orf123 / Fold change vs veh, C9orf123 / RFU, N4BP2L2 / Fold change vs veh, N4BP2L2 / RFU, ARFIP1 / Fold change vs veh, ARFIP1 / RFU, FAM179B / Fold change vs veh, FAM179B / RFU, BCL10 / Fold change vs veh, BCL10 / RFU, UHRF1BP1L / Fold change vs veh, UHRF1BP1L / RFU, BET1 / Fold change vs veh, BET1 / RFU, CNOT2 / Fold change vs veh, CNOT2 / RFU, ZNF268 / Fold change vs veh, ZNF268 / Fold change vs veh, ZNF507 / RFU, DGCR2 / Fold change vs veh, DGCR2 / RFU, WDSUB1 / Fold change vs veh, WDSUB1 / Fold change vs veh, HSP90B1 /// MIR3652 / RFU, ADSS / Fold change vs veh, ADSS / RFU, GK / Fold change vs veh, GK / RFU, ZNF148 / Fold change vs veh, ZNF148 / RFU, TAF9 / Fold change vs veh, TAF9 / RFU, SLC1A5 / Fold change vs veh, SLC1A5 / RFU, SLMO2 / Fold change vs veh, SLMO2 / RFU, ABCC4 / Fold change vs veh, ABCC4 / RFU, LOC101060439 /// RAP1B / Fold change vs veh, LOC101060439 /// RAP1B / RFU, RFX7 / Fold change vs veh, RFX7 / RFU, GTPBP10 / Fold change vs veh, GTPBP10 / RFU, CNEP1R1 / Fold change vs veh, CNEP1R1 / RFU, BIVM-ERCC5 /// ERCC5 / Fold change vs veh, BIVM-ERCC5 /// ERCC5 / RFU, ILF3 / Fold change vs veh, ILF3 / RFU 11762660_at / Fold change /veh 11762660_at / RFU VCAN (11757783_s_at) / Fold change /veh VCAN (11757783_s_at) / RFU DDX43 (11728927_at) / Fold change /veh DDX43 (11728927_at) / RFU KRT8 (11758188_x_at) / Fold change /veh KRT8 (11758188_x_at) / RFU NKD1 (11759106_at) / Fold change /veh NKD1 (11759106_at) / RFU SRD5A1 (11742802_a_at) / Fold change /veh SRD5A1 (11742802_a_at) / RFU TPSAB1 /// TPSB2 (11721975_s_at) / Fold change /veh TPSAB1 /// TPSB2 (11721975_s_at) / RFU GSTM3 (11746129_a_at) / Fold change /veh GSTM3 (11746129_a_at) / RFU IL23R (11737362_x_at) / Fold change /veh IL23R (11737362_x_at) / RFU TMEM51 (11727254_a_at) / Fold change /veh TMEM51 (11727254_a_at) / RFU PIWIL2 (11732686_x_at) / Fold change /veh PIWIL2 (11732686_x_at) / RFU ORM1 (11744905_x_at) / Fold change /veh ORM1 (11744905_x_at) / RFU CCDC152 (11743942_at) / Fold change /veh CCDC152 (11743942_at) / RFU ECM1 (11717891_a_at) / Fold change /veh ECM1 (11717891_a_at) / RFU IL23R (11748794_a_at) / Fold change /veh IL23R (11748794_a_at) / RFU TNFAIP8L3 (11732012_x_at) / Fold change /veh TNFAIP8L3 (11732012_x_at) / RFU MBOAT4 (11741988_at) / Fold change /veh MBOAT4 (11741988_at) / RFU 11764193_at / Fold change /veh 11764193_at / RFU TMEM53 (11763286_at) / Fold change /veh TMEM53 (11763286_at) / RFU MAGEB2 (11727129_at) / Fold change /veh MAGEB2 (11727129_at) / RFU TMEM200A (11744735_a_at) / Fold change /veh TMEM200A (11744735_a_at) / RFU CCDC152 (11751479_a_at) / Fold change /veh CCDC152 (11751479_a_at) / RFU FAM211A (11726209_a_at) / Fold change /veh FAM211A (11726209_a_at) / RFU RGS16 (11746705_a_at) / Fold change /veh RGS16 (11746705_a_at) / RFU VCAN (11755009_s_at) / Fold change /veh VCAN (11755009_s_at) / RFU RHOB (11743442_s_at) / Fold change /veh RHOB (11743442_s_at) / RFU RGS16 (11720943_a_at) / Fold change /veh RGS16 (11720943_a_at) / RFU RGS16 (11720944_at) / Fold change /veh RGS16 (11720944_at) / RFU, VPS4B / Fold change vs veh, VPS4B / RFU, CREB1 / Fold change vs veh, CREB1 / RFU, DNAJC13 / Fold change vs veh, DNAJC13 / RFU, GNAQ / Fold change vs veh, GNAQ / RFU, CDK5R1 / Fold change vs veh, CDK5R1 / RFU, ZRANB3 / Fold change vs veh, ZRANB3 / RFU, CUL4A / Fold change vs veh, CUL4A / RFU, CCNY / Fold change vs veh, CCNY / RFU, UFL1 / Fold change vs veh, UFL1 / RFU, COG3 / Fold change vs veh, COG3 / RFU, DIAPH2 / Fold change vs veh, DIAPH2 / RFU, SKA2 / Fold change vs veh, SKA2 / RFU, AFF3 / Fold change vs veh, AFF3 / RFU, LMF1 / Fold change vs veh, LMF1 / RFU, IPO11 / Fold change vs veh, IPO11 / RFU, DFFB / Fold change vs veh, DFFB / RFU, FOXP1 / Fold change vs veh, FOXP1 / RFU, CARD8 / Fold change vs veh, CARD8 / RFU, STRN3 / Fold change vs veh, STRN3 / RFU, ADK / Fold change vs veh, ADK / RFU, RASSF2 / Fold change vs veh, RASSF2 / RFU, WIPF1 / Fold change vs veh, WIPF1 / RFU, LARP1B / Fold change vs veh, LARP1B / RFU, RASA1 / Fold change vs veh, RASA1 / RFU, RB1 / Fold change vs veh, RB1 / RFU, PPFIA1 / Fold change vs veh, PPFIA1 / RFU, MAT2A / Fold change vs veh, MAT2A / RFU, CCT5 / Fold change vs veh, CCT5 / RFU, WDR92 / Fold change vs veh, WDR92 / RFU, CUX1 / Fold change vs veh, CUX1 / RFU, TTC7A / Fold change vs veh, TTC7A / RFU, TMEM135 / Fold change vs veh, TMEM135 / RFU, DEPTOR / Fold change vs veh, DEPTOR / RFU, CPM / Fold change vs veh, CPM / RFU, DNAJB6 / Fold change vs veh, DNAJB6 / RFU, CACNA2D3 / Fold change vs veh, CACNA2D3 / RFU, DTX4 / Fold change vs veh, DTX4 / RFU, TFCP2 / Fold change vs veh, TFCP2 / RFU, GMCL1 /// GMCL1P1 / Fold change vs veh, GMCL1 /// GMCL1P1 / RFU, AEBP2 / Fold change vs veh, AEBP2 / RFU, SNHG1 /// SNORD22 /// SNORD25 /// SNORD26 /// SNORD27 /// SNORD28 /// SNORD29 /// SNORD31 / Fold change vs veh, SNHG1 /// SNORD22 /// SNORD25 /// SNORD26 /// SNORD27 /// SNORD28 /// SNORD29 /// SNORD31 / Fold change (Aza/veh), C12orf56 (ProbeSet 11735607_a_at) / Fold change (ACY-1035/veh), C12orf56 (ProbeSet 11735607_a_at) / Fold change (Aza/veh), FGFR1OP (ProbeSet 11751329_s_at) / Fold change (ACY-1035/veh), FGFR1OP (ProbeSet 11751329_s_at) / Fold change (Aza/veh), VPS36 (ProbeSet 11739960_a_at) / Fold change (ACY-1035/veh), VPS36 (ProbeSet 11739960_a_at) / RFU SYPL1 (11715823_x_at) / Fold change /veh SYPL1 (11715823_x_at) / RFU IGFBP7 (11715501_s_at) / Fold change /veh IGFBP7 (11715501_s_at) / RFU REEP3 (11722064_at) / Fold change /veh REEP3 (11722064_at) / RFU IGLL1 (11728026_x_at) / Fold change /veh IGLL1 (11728026_x_at): dose or concentration left out as unconfirmed
Conditions: MV-4-11 cells, 48 hours

SMILES: Nc1ccc(-c2cccs2)cc1NC(=O)c1ccc2c(c1)cc(C1CC1)n2CCN1CCOCC1 [ACY-1035]
- RFU TMPRSS4 (11747572_a_at): 57.40 RFU
